# Experimental data published in paper PMC12591169 (Advanced Science, 2025).
# Entries after “also recorded” stand apart in the source; their conditions may differ. Non-standard residues stand in square brackets, D forms with d. pT = C[C@@H](OP(=O)(O)O)[C@H](N)C(=O)O
# B1: ERα_(581-595)pT594 15mer peptide of estrogen receptor α (peptide)
# peptide: Ac-KYYITGEAEGFPA[pT]V-OH
# notes: estrogen receptor α, residues 581-595, phosphorylated at T594 ('mode 3' C-terminal motif); source: synthetic peptide (Synpeptide Ltd)
# B2: LRRK2_(928-942)pS935 15mer peptide of leucine-rich repeat kinase 2 (peptide)
# peptide: NLQRHSNSLGPIFDH
# HELM: PEPTIDE1{[ac].N.L.Q.R.H.S.N.[O=C([C@H](COP(=O)(O)O)N[*:1])[*:2]].L.G.P.I.F.D.H.[am]}$$$$V2.0
# SMILES: CC[C@H](C)[C@H](NC(=O)[C@@H]1CCCN1C(=O)CNC(=O)[C@H](CC(C)C)NC(=O)[C@H](COP(=O)(O)O)NC(=O)[C@H](CC(N)=O)NC(=O)[C@H](CO)NC(=O)[C@H](Cc1c[nH]cn1)NC(=O)[C@H](CCCNC(=N)N)NC(=O)[C@H](CCC(N)=O)NC(=O)[C@H](CC(C)C)NC(=O)[C@H](CC(N)=O)NC(C)=O)C(=O)N[C@@H](Cc1ccccc1)C(=O)N[C@@H](CC(=O)O)C(=O)N[C@@H](Cc1c[nH]cn1)C(N)=O
# notes: leucine-rich repeat kinase 2, residues 928-942, phosphorylated at S935; source: synthetic peptide (Synpeptide Ltd)
# How the values were obtained:
# 14‐3‐3σ = test: HDX‐MS of 14‐3‐3σ with and without ERα or LRRK2 peptide; assay type: binding; settings: for protection of 14‐3‐3σ from deuterium exchange upon peptide binding: 14‐3‐3σ 100 µM, ERα 100 µM or LRRK2 200 µM, diluted tenfold into 100 mM ammonium acetate 99.9% D2O pD 7.2, room temperature, 10 min, 5 h, 24 h, 10% DMSO, n = 3 (LRRK2 10 min: duplicate); for protection of 14‐3‐3σ from deuterium exchange at H8 upon peptide binding: H8, located distally from the binding groove
# Method: (§1) Maximally deuterated samples were analyzed in triplicate.
# (§2) Eluted peptides were directly infused into the mass spectrometer. Mobile phases were kept on ice.
# (§3) (Thermo Fisher Scientific). […] Peptides with >20 residues were excluded from analysis.
# 14-3-3σ [1] = test: Native MS of 14‐3‐3σ with ERα; assay type: binding; settings: 14‐3‐3 5 µM, 1:1 ratio, 100 mM ammonium acetate (pH 6.8), 0.5% DMSO, absence of FC-A; 3 replicates
# Method: (§4) LC‐MS grade dimethyl sulfoxide (DMSO) was purchased from Fisher Scientific. Lypholized ERα581‐595 15mer peptide (Ac‐[…](pT)V‐COOH, Synpeptide Ltd) and lypholized LRRK2_928‐942 15mer peptide (Ac‐NLQRHSN(pS)LGPIFDH‐CONH2, Synpeptide Ltd) were diluted into 100 mM ammonium acetate to make peptide stocks of 1 mM and stored at ‐20 °C prior to use. Fusicoccin A (FC‐A) was provided as a gift from Yusuke Higuchi. It was obtained as a metabolite of wildtype Phomopsis amygdali and genetically modified Phomopsis amygdali Niigata‐2 as reported previously^[ [62] ^] FC‐A stocks were stored in 100% DMSO at […] at ‐80 °C. 14‐3‐3 was buffer exchanged into 100 mM ammonium acetate (pH 6.8) using a 10 kDa molecular weight cut‐off Amicon Ultra centrifugal filter (Merck Millipore) and stored at ‐80 °C prior to use. To form the 14‐3‐3/ERα complex, 14‐3‐3 (5 µM) was incubated with ERα (1:1 ratio) in the presence and absence of FC‐A (50 µM) (1:1:10 ratio) for 10 min on ice or at 10 min, 5 h or 24 h at room temperature to mimic HDX conditions (Figure S16, Supporting Information). To form the 14‐3‐3/LRRK2 complex, 14‐3‐3 (5 µM) was incubated with LRRK2 (1:2 ratio) in the presence and absence of FC‐A (50 µM) (1:2:10 ratio). 14‐3‐3 binding ratios were optimized to enable single and double‐bound complex formation. 14‐3‐3 protein complexes were directly infused into the mass spectrometer. […]
# 14‐3‐3 [2] = settings: binary complex, without FC‐A; read-out: Kd for the binary complex 14‐3‐3/ERα; cited from earlier work
# Source text: (§5) Overall, we have highlighted the usefulness of applying HDX‐MS to characterize molecular glues. […] This information was captured on minute‐hour HDX‐MS timescales; however, it is important to optimize HDX‐MS timescales when applying this method to study alternate protein systems. Indeed, shorter timescales might be preferential to capture the most valuable information.
# 14‐3‐3/ERα = settings: cited from earlier work
# Source text: as §5
# 14‐3‐3ζ /E6 oncoprotein = settings: crystallography; cited from earlier work
# 14‐3‐3/LRRK2 complex [3] = settings: HDX‐MS, 14‐3‐3σ 100 µM, LRRK2 200 µM, FC‐A 1 mM
# Method: To form the 14‐3‐3/LRRK2 complex, 14‐3‐3σ in 25 mM HEPES, 200 mM NaCl, and 10 mM MgCl2 pH 8.0 (100 µM) was incubated with LRRK2 (200 µM) for 10 min on ice. To form the stabilized complex, 14‐3‐3σ (100 µM) was incubated with LRRK2 (200 µM) and FC‐A (1 mM) for 10 min on ice. Control incubations with 14‐3‐3σ (100 µM) in isolation were also performed. A final concentration of 10% DMSO was used for all experiments.
# Deuterium labelling was carried out by diluting 14‐3‐3, 14‐3‐3/ERα, 14‐3‐3/ERα/FC‐A, 14‐3‐3/LRRK2 and 14‐3‐3/LRRK2/FC‐A tenfold with 100 mM ammonium acetate 99.9% D2O pD 7.2 and incubating for 10 min, 5 h, and 24 h at room temperature. The reaction was quenched by removal of 50 µL protein complex at each time‐point and adding 30 µL 4 M urea, 200 mM potassium phosphate buffer, pH 2.4, followed by flash freezing in liquid nitrogen and stored at ‐80 °C. […] Each time point was analysed in triplicate by LC‐MS with the exception of the 10‐min timepoint for LRRK2, analysed in duplicate. Non‐deuterated control samples were analysed in triplicate by LC‐MS for ERα complexes and duplicate for LRRK2 complexes.
# Maximally deuterated samples were prepared by buffer exchanging 14‐3‐3 into 100 mM ammonium acetate 99.9% D2O pD 7.2 at 20 °C using a 10 kDa molecular weight cut‐off Amicon Ultra centrifugal filter (Merck Millipore). […] Maximally deuterated samples were analyzed in triplicate. […]
# 14‐3‐3σ/ERα complex = test: HDX‐MS of 14‐3‐3σ/ERα complex with and without FC‐A; assay type: binding
# Method: as §1, §2, §3
# 14‐3‐3/LRRK2 complex [4] = test: Native MS of 14‐3‐3σ/LRRK2 with FC‐A; assay type: binding; settings: 14‐3‐3 5 µM, LRRK2 1:2 ratio, FC‐A 50 µM (1:2:10); Figure S14e; proposed explanation of HDX protection
# Method: as §4
# 14-3-3•LRRK2 complex = settings: Fig. S3; protein partner occupies the FC-A binding site; ref PDB 5MY9; cited from earlier work
# Source text: (§6) Top: Insert of the amphipathic binding groove of 14-3-3 showing binding of FC-A (green) to the 14-3-3•ERα complex (pink) (PDB 4JDD). 14-3-3σ residues involved in binding FC-A and ERα are labelled in grey. […] For illustrati ...
# [5] = tested on: 14-3-3•ERα protein complex; settings: ref PDB 4JDD, cited from earlier work
# Source text: as §6
# 14-3-3σ/ERα = settings: 14-3-3:ERα:FC-A 1:1:10, 14‐3‐3 5 µM, FC‐A 50 µM, 100 mM ammonium acetate (pH 6.8), 0.5% DMSO; 3 replicates
# Method: as §4
# 14‐3‐3 [6] = settings: FRET; cited from earlier work
# 14‐3‐3 [7] = settings: cited from earlier work
# 14-3-3σ [8] = target: T1, 14-3-3σ (UniProt P31947 1-248); test: HDX-MS; 14-3-3σ (100 µM) incubated with ERα peptide (100 µM) or LRRK2 peptide (200 µM), with or without FC-A (1 mM), 10 min on ice, in 25 mM HEPES, 200 mM NaCl, 10 mM MgCl2 pH 8.0, 10% DMSO; diluted tenfold in 100 mM ammonium acetate 99.9% D2O pD 7.2; labelled 10 min, 5 h and 24 h at room temperature; deuterium uptake read on 14-3-3σ peptides (pepsin/nepenthesin-2); settings: both partners purified
# T1 construct: 14-3-3 protein sigma, full length
# T1 sequence (looked up): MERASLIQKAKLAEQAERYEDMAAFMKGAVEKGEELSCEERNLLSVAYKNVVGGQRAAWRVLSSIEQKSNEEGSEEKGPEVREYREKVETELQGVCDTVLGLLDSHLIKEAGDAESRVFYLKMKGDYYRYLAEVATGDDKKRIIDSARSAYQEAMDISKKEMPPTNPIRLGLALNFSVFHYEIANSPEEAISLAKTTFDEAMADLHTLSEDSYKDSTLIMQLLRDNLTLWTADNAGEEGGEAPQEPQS
molecule,measurement,setting,value
"Ac‐KYYITGEAEGFPA(pT)V‐COOH (Ac-KYYITGEAEGFPA[pT]V-OH) [ERα, lypholized ERα581‐595 15mer peptide, phosphorylated mimetic of estrogen receptor α]",protection of 14‐3‐3σ from deuterium exchange upon peptide binding,14‐3‐3σ,"Protection from deuterium labelling occurs; also recorded: peptides located in helices H3, H7 and H9 showed significant levels of protection after 24 h"
same,protection of 14‐3‐3σ from deuterium exchange at H8 upon peptide binding,"14‐3‐3σ; pD 7.2, room temperature",protection was also observed at H8
same,"dynamics and flexibility of 14‐3‐3 dimer interface (residues 85–100 on H4, 26–36 on H2) upon ERα binding","14‐3‐3σ; pD 7.2, room temperature",a reduction in dynamics and protein flexibility
same,ERα complexes with 14-3-3 observed by native MS,14-3-3σ [1],singly and doubly bound ERα is observed in complex
same,Kd,14‐3‐3 [2],1600 ± 300 nM
same,Kd,14‐3‐3/ERα; in the presence of FC‐A,100 ± 30 nM
"C=CC(C)(C)OC[C@H]1O[C@H](O[C@@H]2C3=C([C@H](C)COC(C)=O)C[C@H](O)[C@]3(C)/C=C3/[C@@H](COC)CC[C@H]3[C@@H](C)[C@H]2O)[C@H](O)[C@@H](OC(C)=O)[C@@H]1O [FC‐A, Fusicoccin A]",conformational change of 14‐3‐3ζ upon addition of FC‐A,14‐3‐3ζ /E6 oncoprotein,closure of H9
same,additional protection of 14‐3‐3/LRRK2 in regions of the LRRK2 binding interface upon FC‐A addition,"14‐3‐3/LRRK2 complex [3]; diluted tenfold into D2O buffer pD 7.2, room temperature, 10% DMSO",No additional protection was observed in regions involved in the LRRK2 binding interface suggesting no stabilization effect
same,level of protection of residues 37 to 45 (FC‐A binding region) in 14‐3‐3/LRRK2 upon FC‐A addition,"14‐3‐3/LRRK2 complex [3]; pD 7.2, room temperature",~8%
same,increase of 14‐3‐3/ERα affinity by the molecular glue,14‐3‐3/ERα; FC‐A,> 10 fold
same,additional protection from deuterium exchange of 14‐3‐3σ/ERα upon FC‐A addition,"14‐3‐3σ/ERα complex; HDX‐MS, 14‐3‐3σ 100 µM, ERα 100 µM, FC‐A 1 mM, diluted tenfold into D2O buffer pD 7.2, room temperature, 10 min, 5 h, 24 h, 10% DMSO, n = 3","additional protection was observed in several peptides; also recorded: increased protection on H3, H7 and H9; also recorded: protection toward the N‐terminus of H3 and H5 between residues 37–45 and 117–122; also recorded: between residues 85–100 on H4 and residues 26–36 on H2; also recorded: additional protection from deuterium labelling"
same,closure of H9 upon FC‐A addition to 14‐3‐3σ/ERα,"14‐3‐3σ/ERα complex; HDX‐MS, pD 7.2, room temperature",Evidence of this H9 closure was not observed
same,"peptides with main differences in HDX uptake, 14‐3‐3σ/ERα vs 14‐3‐3σ/ERα/FC‐A","14‐3‐3σ/ERα complex; difference plot over all time points (10 min, 5 h, 24 h)","peptides 23–35, 45-51, 71-73, 92-114 and 120-122"
same,interaction between FC‐A and the 14‐3‐3/LRRK2 complex,14‐3‐3/LRRK2 complex [4],low affinity interaction
same,stabilization of 14-3-3•LRRK2 complex by FC-A,14-3-3•LRRK2 complex,does not stabilize
same,stabilization of 14-3-3•ERα complex by FC-A,"[5]; Fig. S3, PDB 4JDD",binds and stabilizes
same,14-3-3σ/ERα residues interacting with FC-A,[5]; Fig. S3,"N42, D215 and K122 interact with FC-A"
same,"shift of binding equilibrium upon FC-A addition, native MS",14-3-3σ/ERα,the binding equilibrium is shifted to the fully stabilized ternary complex
tyrosine hydroxylase: protein partner titrated in a previous FRET study of 14‐3‐3 dimerization,14‐3‐3 dimer stability upon titration,14‐3‐3 [6],increased dimer stability
"Ac‐NLQRHSN(pS)LGPIFDH‐CONH2 [LRRK2, lypholized LRRK2_928‐942 15mer peptide, phosphorylated mimetic of leucine‐rich repeat kinase 2]",protection of 14‐3‐3σ from deuterium exchange upon peptide binding,14‐3‐3σ,identical areas of protection were observed upon LRRK2 binding; also recorded: the level of protection decreased relative to ERα
same,protection of 14‐3‐3σ from deuterium exchange at H8 upon peptide binding,"14‐3‐3σ; pD 7.2, room temperature",protection was also observed at H8
same,binding affinity for 14‐3‐3 relative to ERα,14‐3‐3 [7],lower binding affinity
B1,binding result,14-3-3σ [8],binds
B2,binding result,14-3-3σ [8],binds
